The structures appear in SMILES notation. ≈ marks a conversion by molar mass, not a printed value.

These results are taken from ChEMBL document CHEMBL4825686, “HTS-based discovery and optimization of novel positive allosteric modulators of the α7 nicotinic acetylcholine receptor” (Eur J Med Chem, 2021).

System in one series: not listed separately
Description: Mutagenicity in Salmonella typhimurium TA100 in presence of rat liver S9 fraction by AMES test. Type of series: toxicity, subcellular. To be noted: salmonella enterica subsp. enterica serovar typhimurium.
In the case of `Cc1ccc(CN2CCN(C(=O)C(=O)Nc3ccc4[nH]c(C)c(C)c4c3)CC2)cc1`, the Activity entry is recorded as “Toxic”.
Same read-out and setting: under `Cc1ccc(CN2CCN(C(=O)C(=O)Nc3ccc4c(c3)c(F)cn4C)CC2)cc1` stands “Toxic”.
On the same count and under the same terms, under `Cc1ccc(CN2CCN(C(=O)C(=O)Nc3ccc4c(c3)c(C)cn4C)CC2)cc1` stands “Toxic”.

System in the next series: not listed separately
Description: Kinetic solubility of compound. The series is classed as physicochemical. To be noted: read-out: Kinetic_solubility.
Consider `Cc1ccc(CN2CCN(C(=O)C(=O)Nc3ccc4[nH]c(C)c(C)c4c3)CC2)cc1`, for which the solubility kinetic is 23 µM (≈ 9.3 µg/mL).
Still for that read-out and setting: the figure for `Cc1ccc(CN2CCN(C(=O)C(=O)Nc3ccc4c(c3)c(F)cn4C)CC2)cc1` is 16.5 µM (≈ 6.74 µg/mL).
`Cc1ccc(CN2CCN(C(=O)C(=O)Nc3ccc4c(c3)c(C)cn4C)CC2)cc1`: the solubility kinetic amounted to 5 µM (≈ 2.02 µg/mL).

A further series deals with T1, Neuronal acetylcholine receptor subunit alpha-7 (Homo sapiens, UniProt P36544). The series can be described thus: Positive allosteric modulator activity at human alpha7 nAChR expressed in Flp-In-HEK293 cells co-expressing RIC-3 assessed as potentiation of PNU282987-induced calcium influx measured after 10 mins by FLIPR assay. Type of series: cell-based, Flp-In-293. To be noted: read-out: EC50.
T1 sequence (P36544 whole entry): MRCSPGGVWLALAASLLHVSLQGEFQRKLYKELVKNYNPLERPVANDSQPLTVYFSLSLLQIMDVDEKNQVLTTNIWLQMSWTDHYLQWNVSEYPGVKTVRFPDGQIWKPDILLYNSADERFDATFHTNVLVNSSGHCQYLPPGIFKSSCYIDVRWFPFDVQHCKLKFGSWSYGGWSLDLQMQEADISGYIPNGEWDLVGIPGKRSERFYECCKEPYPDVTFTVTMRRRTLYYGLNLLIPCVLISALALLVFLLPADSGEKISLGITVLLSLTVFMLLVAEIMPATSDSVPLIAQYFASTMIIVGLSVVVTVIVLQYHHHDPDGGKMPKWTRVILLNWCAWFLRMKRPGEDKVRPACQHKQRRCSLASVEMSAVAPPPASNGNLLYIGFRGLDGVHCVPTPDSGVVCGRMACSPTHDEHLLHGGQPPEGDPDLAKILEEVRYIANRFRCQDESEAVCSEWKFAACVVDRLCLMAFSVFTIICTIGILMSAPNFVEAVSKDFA
For orientation: EC50 means the midpoint of the concentration-response curve. With `Cc1ccc(CN2CCN(C(=O)C(=O)Nc3ccc4c(c3)c(F)cn4C)CC2)cc1`, the EC50 worked out at 85 nM.
On the same count and under the same terms, under `Cc1ccc(CN2CCN(C(=O)C(=O)Nc3ccc4c(c3)c(C)cn4C)CC2)cc1` stands 920 nM.

System in the next series: not listed separately
Description: Metabolic stability in human liver microsomes assessed as intrinsic clearance at 1 uM measured per mg protein upto 40 mins. The series is classed as ADME, Microsome. To be noted: read-out: CLH.
On to `Cc1ccc(CN2CCN(C(=O)C(=O)Nc3ccc4[nH]c(C)c(C)c4c3)CC2)cc1`, for which the microsomal CLint at 1 µM was found to be 13 µL/min/mg.
`Cc1ccc(CN2CCN(C(=O)C(=O)Nc3ccc4c(c3)c(F)cn4C)CC2)cc1`: the microsomal CLint at 1 µM is 21 µL/min/mg.
For `Cc1ccc(CN2CCN(C(=O)C(=O)Nc3ccc4c(c3)c(C)cn4C)CC2)cc1`, the microsomal CLint at 1 µM was 17 µL/min/mg.

System in a further series: not listed separately
Description: Metabolic stability in Wistar rat liver microsomes assessed as intrinsic clearance at 1 uM measured per mg protein upto 40 mins. The series is classed as ADME, Microsome. To be noted: read-out: CLH. For orientation: Liver microsomes are a subcellular fraction often used to study metabolism.
For the molecule `Cc1ccc(CN2CCN(C(=O)C(=O)Nc3ccc4[nH]c(C)c(C)c4c3)CC2)cc1`, the microsomal CLint at 1 µM stood at 56 µL/min/mg.
The same measure, in the same setting: under `Cc1ccc(CN2CCN(C(=O)C(=O)Nc3ccc4c(c3)c(F)cn4C)CC2)cc1` stands 192 µL/min/mg; under `Cc1ccc(CN2CCN(C(=O)C(=O)Nc3ccc4c(c3)c(C)cn4C)CC2)cc1`, 140 µL/min/mg.

System in the next series: not listed separately
The series can be described thus: Metabolic stability in NMRI mouse liver microsomes assessed as intrinsic clearance at 1 uM measured per mg protein upto 40 mins. The series is classed as ADME, Microsome. To be noted: read-out: CLH.
Take `Cc1ccc(CN2CCN(C(=O)C(=O)Nc3ccc4[nH]c(C)c(C)c4c3)CC2)cc1`: the microsomal CLint at 1 µM worked out at 151 µL/min/mg.
The same measure, in the same setting: the figure for `Cc1ccc(CN2CCN(C(=O)C(=O)Nc3ccc4c(c3)c(F)cn4C)CC2)cc1` is 214 µL/min/mg.
As for `Cc1ccc(CN2CCN(C(=O)C(=O)Nc3ccc4c(c3)c(C)cn4C)CC2)cc1`, the microsomal CLint at 1 µM is 198 µL/min/mg.

System in the next series: not listed separately
The series can be described thus: Mutagenicity in Salmonella typhimurium TA1535 in presence of rat liver S9 fraction by AMES test. Type of series: toxicity, subcellular. To be noted: salmonella enterica subsp. enterica serovar typhimurium.
Turning to `Cc1ccc(CN2CCN(C(=O)C(=O)Nc3ccc4[nH]c(C)c(C)c4c3)CC2)cc1`, the Activity entry is given as “Toxic”.
Still for that read-out and setting: the entry for `Cc1ccc(CN2CCN(C(=O)C(=O)Nc3ccc4c(c3)c(F)cn4C)CC2)cc1` is “Toxic”.
For `Cc1ccc(CN2CCN(C(=O)C(=O)Nc3ccc4c(c3)c(C)cn4C)CC2)cc1`, the Activity entry was “Toxic”.

System in the next series: not listed separately
Description: Mutagenicity in Salmonella typhimurium TA98 in presence of rat liver S9 fraction by AMES test. To be noted: salmonella enterica subsp. enterica serovar typhimurium. The series is classed as toxicity, subcellular.
Turning to `Cc1ccc(CN2CCN(C(=O)C(=O)Nc3ccc4[nH]c(C)c(C)c4c3)CC2)cc1`, the Activity entry was “Toxic”.
On the same count and under the same terms, under `Cc1ccc(CN2CCN(C(=O)C(=O)Nc3ccc4c(c3)c(F)cn4C)CC2)cc1` stands “Toxic”; under `Cc1ccc(CN2CCN(C(=O)C(=O)Nc3ccc4c(c3)c(C)cn4C)CC2)cc1`, “Toxic”.

System in another series: not listed separately
The series can be described thus: Mutagenicity in Salmonella typhimurium TA98 in absence of rat liver S9 fraction by AMES test. To be noted: salmonella enterica subsp. enterica serovar typhimurium. Type of series: toxicity.
For the molecule `Cc1ccc(CN2CCN(C(=O)C(=O)Nc3ccc4[nH]c(C)c(C)c4c3)CC2)cc1`, the Activity result is given as “Toxic”.
On the same count and under the same terms, the entry for `Cc1ccc(CN2CCN(C(=O)C(=O)Nc3ccc4c(c3)c(F)cn4C)CC2)cc1` is “Toxic”.
In the case of `Cc1ccc(CN2CCN(C(=O)C(=O)Nc3ccc4c(c3)c(C)cn4C)CC2)cc1`, the Activity result was “Toxic”.

System in a further series: not listed separately
The series can be described thus: Mutagenicity in Salmonella typhimurium TA100 in absence of rat liver S9 fraction by AMES test. The series is classed as toxicity. To be noted: salmonella enterica subsp. enterica serovar typhimurium.
In the case of `Cc1ccc(CN2CCN(C(=O)C(=O)Nc3ccc4[nH]c(C)c(C)c4c3)CC2)cc1`, the Activity entry was “Toxic”.
On to `Cc1ccc(CN2CCN(C(=O)C(=O)Nc3ccc4c(c3)c(F)cn4C)CC2)cc1`, for which the Activity result is on record as “Toxic”.
In the case of `Cc1ccc(CN2CCN(C(=O)C(=O)Nc3ccc4c(c3)c(C)cn4C)CC2)cc1`, the Activity entry is reported as “Toxic”.

System in the next series: not listed separately
Description: Mutagenicity in Salmonella typhimurium TA1537 in presence of rat liver S9 fraction by AMES test. The series is classed as toxicity, subcellular. To be noted: salmonella enterica subsp. enterica serovar typhimurium.
For `Cc1ccc(CN2CCN(C(=O)C(=O)Nc3ccc4[nH]c(C)c(C)c4c3)CC2)cc1`, the Activity result is “Toxic”.
Turning to `Cc1ccc(CN2CCN(C(=O)C(=O)Nc3ccc4c(c3)c(F)cn4C)CC2)cc1`, the Activity result was “Toxic”.
Take `Cc1ccc(CN2CCN(C(=O)C(=O)Nc3ccc4c(c3)c(C)cn4C)CC2)cc1`: the Activity result is reported as “Toxic”.

System in a further series: not listed separately
The series can be described thus: Mutagenicity in Salmonella typhimurium TA1537 in absence of rat liver S9 fraction by AMES test. To be noted: salmonella enterica subsp. enterica serovar typhimurium. The series is classed as toxicity.
As to `Cc1ccc(CN2CCN(C(=O)C(=O)Nc3ccc4[nH]c(C)c(C)c4c3)CC2)cc1`, the Activity entry was “Toxic”.
In the case of `Cc1ccc(CN2CCN(C(=O)C(=O)Nc3ccc4c(c3)c(F)cn4C)CC2)cc1`, the Activity entry was “Toxic”.
In the case of `Cc1ccc(CN2CCN(C(=O)C(=O)Nc3ccc4c(c3)c(C)cn4C)CC2)cc1`, the Activity entry is “Toxic”.

System in the next series: not listed separately
The series can be described thus: Mutagenicity in Escherichia coli WP2 uvrA in presence of rat liver S9 fraction by AMES test. Type of series: toxicity, subcellular.
Conditions: not given
Consider `Cc1ccc(CN2CCN(C(=O)C(=O)Nc3ccc4[nH]c(C)c(C)c4c3)CC2)cc1`, for which the Activity entry is listed as “Toxic”.
On the same count and under the same terms, under `Cc1ccc(CN2CCN(C(=O)C(=O)Nc3ccc4c(c3)c(F)cn4C)CC2)cc1` stands “Toxic”.
Same read-out and setting: the entry for `Cc1ccc(CN2CCN(C(=O)C(=O)Nc3ccc4c(c3)c(C)cn4C)CC2)cc1` is “Toxic”.

System in a further series: not listed separately
Description: Mutagenicity in Escherichia coli WP2 uvrA in absence of rat liver S9 fraction by AMES test.
Conditions: not given
Type of series: toxicity.
For the molecule `Cc1ccc(CN2CCN(C(=O)C(=O)Nc3ccc4[nH]c(C)c(C)c4c3)CC2)cc1`, the Activity entry was “Toxic”.
With `Cc1ccc(CN2CCN(C(=O)C(=O)Nc3ccc4c(c3)c(F)cn4C)CC2)cc1`, the Activity result is on record as “Toxic”.
On the same count and under the same terms, under `Cc1ccc(CN2CCN(C(=O)C(=O)Nc3ccc4c(c3)c(C)cn4C)CC2)cc1` stands “Toxic”.

Another series has as its target T1, Neuronal acetylcholine receptor subunit alpha-7. The series can be described thus: Positive allosteric modulator activity at human alpha7 nAChR expressed in Flp-In-HEK293 cells co-expressing RIC-3 assessed as potentiation of PNU282987-induced calcium influx at 10 uM measured after 10 mins by FLIPR assay. Type of series: cell-based. To be noted: Flp-In-293.
`Cc1ccc(CN2CCN(C(=O)C(=O)Nc3ccc4[nH]c(C)c(C)c4c3)CC2)cc1`: the Activity turned out to be 10%.

System in another series: not listed separately
Description: Mutagenicity in Salmonella typhimurium TA1535 in absence of rat liver S9 fraction by AMES test. The series is classed as toxicity. To be noted: salmonella enterica subsp. enterica serovar typhimurium.
In the case of `Cc1ccc(CN2CCN(C(=O)C(=O)Nc3ccc4[nH]c(C)c(C)c4c3)CC2)cc1`, the Activity entry was “Toxic”.
The same measure, in the same setting: the entry for `Cc1ccc(CN2CCN(C(=O)C(=O)Nc3ccc4c(c3)c(F)cn4C)CC2)cc1` is “Toxic”; for `Cc1ccc(CN2CCN(C(=O)C(=O)Nc3ccc4c(c3)c(C)cn4C)CC2)cc1` it is “Toxic”.
